Paper PMC8044163, “Vitamin D and lumisterol derivatives can act on liver X receptors (LXRs)” (Scientific Reports, 2021)

Assays:
LBD of LXRβ = target: T1, LBD of LXRβ (Homo sapiens, UniProt P55055); experiment: LanthaScreen TR-FRET LXRβ coactivator assay (LXR binding assay); format: biochemical; conditions: agonist; average values; read-out: LXRβ EC50
T1 construct: purchased Thermo Fisher Scientific
T1 sequence (P55055 222-460 limits assumed): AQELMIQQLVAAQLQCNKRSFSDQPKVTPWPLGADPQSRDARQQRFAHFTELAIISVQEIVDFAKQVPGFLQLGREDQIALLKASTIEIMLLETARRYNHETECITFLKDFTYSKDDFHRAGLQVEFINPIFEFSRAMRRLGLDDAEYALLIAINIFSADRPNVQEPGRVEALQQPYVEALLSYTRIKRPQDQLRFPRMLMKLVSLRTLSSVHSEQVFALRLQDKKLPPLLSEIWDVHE
Method: (§1) Binding assays of graded concentrations of vitamin D3 or lumisterol hydroxyderivatives to LXRα/β were performed using the LanthaScreen TR-FRET LXRα/β Coactivator kit (Thermo Fisher Scientific, Inc., Waltham, MA) following the manufacture’s protocol. Briefly, after addition of LXRα/β-LBD to the derivatives, a mixture of peptide (Fluorescein-TRAP220/DRIP-2 for LXRα or Fluorescein-D22 for LXRβ) and antibody (Tb-anti-GST) was added to the reaction followed by incubation in room temperature for 2 h. TR-FRET ratio was calculated by dividing the emission at 520 nm by the emission at 495 nm using Synergy neo2 (BioTek, Winooski, VT).

genes downstream of LXR = experiment: qPCR of genes downstream of LXR in murine dermal fibroblasts; format: cell-based, mouse; conditions: 10^–7 M, 24 h
Method: All animal studies followed guidelines outlined by the NIH Guide for the Care and Use of Laboratory Animals and protocols were approved by the Institutional Animal Care and Use Committee at the NIEHS or the UAB. The study was carried out in compliance with the ARRIVE guidelines (http://www.nc3rs.org.uk/page.asp?id=1357). Skin samples from newborn C57BL/6 mice were collected at the NIEHS. Dermal fibroblasts were isolated from the skin of newborn mice, 1–2 day old. Briefly, we followed the protocols described previously. The skin was washed in PBS, cut into smaller pieces and incubated in 2.4 U/ml of dispase II (Roche) overnight at 4 °C. The dermis was separated from the epidermis and incubated in 0.1% collagenase (Roche) at 4 °C overnight. Next day, it was cut into smaller pieces and incubated for 1 h in 0.25% Trypsin (CellGrow) at 37 °C. Single cell suspension was prepared by pipetting and draining through a cell strainer. After centrifugation, cell pellets were suspended in DMEM medium containing 10% charcoal-stripped fetal bovine serum (cFBS), mouse fibroblasts growth factor (FGF) and 1% antibiotic, and inoculated into tissue culture dishes (Midwest Scientific, TPP). Cells, in early passages, from different mice were pooled together to provide representative samples for experiments. Fibroblasts were cultured in Petri dishes (10 cm in diameter) in DMEM and 10% cFBS and triplicate semi-confluent cultures were treated as described.
RNA isolated from either fibroblasts, HaCaT cells or brain was submitted for cDNA synthesis (High Capacity cDNA Reverse Transcription Kit with RNase Inhibitor, Applied Biosystems) following the manufacturers’ protocols. RT-PCR was carried out using Cyber green, in triplicates; as previously described. Approximately, 750 ng of cDNA was used for PCR reactions. GAPDH and CIC-B were used as internal controls. Primer sequences are listed in Supplementary Table 27. Data were analyzed using GraphPad Prism statistical software one way ANOVA or t-test, where appropriate; *p < 0.05; **p < 0.01; ***p < 0.001.

LXRα = target: T2, LXRα (Homo sapiens, UniProt Q13133); experiment: Ligand induced translocation of LXRα to the nucleus, immunofluorescence in HaCaT; format: cell-based; conditions: 10^−7 M, 24 h
T2 construct: endogenous in cells; host or cells: HaCaT keratinocytes
T2 sequence (Q13133 1-447): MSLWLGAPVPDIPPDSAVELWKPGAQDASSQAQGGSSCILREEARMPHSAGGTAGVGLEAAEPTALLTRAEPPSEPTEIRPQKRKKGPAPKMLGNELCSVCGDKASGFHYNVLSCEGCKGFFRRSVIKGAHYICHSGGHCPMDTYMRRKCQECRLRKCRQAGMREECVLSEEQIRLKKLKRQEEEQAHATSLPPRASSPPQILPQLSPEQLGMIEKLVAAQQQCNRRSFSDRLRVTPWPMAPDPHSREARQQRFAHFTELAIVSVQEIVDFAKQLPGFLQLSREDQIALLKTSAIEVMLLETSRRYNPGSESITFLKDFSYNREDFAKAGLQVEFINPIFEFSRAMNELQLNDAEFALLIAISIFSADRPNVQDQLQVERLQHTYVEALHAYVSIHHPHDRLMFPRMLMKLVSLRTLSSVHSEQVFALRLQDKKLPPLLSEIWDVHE
Method: (§2) HaCaT cells were plated in DMEM plus 5% cFBS either on a sterile glass cover slip placed in a well of a 6-well plates for immunofluorescence (IF) assays or TPP Petri dishes for image-stream flow cytometry, and treated with 10^–7 M D3- or L3-hydroxyderivatives or 0.1% ethanol (vehicle) as a negative control was added to each well, and the cells were incubated for 12 or 24 h at 37 °C with 5% CO2. For IF the cells were fixed in 4% paraformaldehyde for 15 min, incubated in 0.5% Triton X-100 in phosphate-buffered saline (PBS) for 5 min, and washed 3 times in PBS. After blocking with 2% bovine serum albumin (BSA) in PBS for 1 h at room temperature, the cells were treated with an anti-LXRα antibody (Novus Biologicals, LLC, Centennial, CO) at 1:200 in PBS supplemented with 2% BSA overnight in 4 °C. After washing the slides were incubated with a mouse anti-rabbit IgG-FITC (Santa Cruz Biotechnology, Inc, Dallas, TX) at 1:200 dilution for 1.5 h at 37 °C. After washing the slides were mounted using propidium iodide (PI) (Vector Labs, Burlingame, California) as a nuclear counterstain. The slides were examined using a KEYENCE America BZ-X710 Fluorescence Microscope (Itasca, IL). The images were subsequently analyzed using the JACoP plugin for colocalization analysis with ImageJ[74]. Five separate high-power field (40×) images were converted to grayscale and analyzed for each condition. Manders’ coefficient (M1), calculated using a preset threshold, was used to quantify the degree of colocalization between PI and LXRα with 0 representing no colocalization, and 1 representing perfect colocalization.

LXRα/β = experiment: Ligand induced translocation of LXRα/β to the nucleus, imaging flow cytometry in HaCaT; format: cell-based, human; conditions: 10^–7 M, 12 h
Method: as §2
For Image Stream II (Amnis, Seattle, WA, USA) cytometer analyses, HaCaT cells were detached and processed as previously described. The cells were fixed with paraformaldehyde and permeabilized in methanol containing buffer[78],[79] and Hoechst stain (r37165, ThermoFisher) and rabbit antibodies to LXRα/β (sc 377260, AF 647, SantaCruz) or VDR (sc-13133, AF 488, SantaCruz) as described previously. Data were analyzed using IDEAS software (Amnis, Seattle, WA, USA).

VDR = target: T3, VDR (Homo sapiens, UniProt P11473); experiment: Translocation of VDR to the nucleus, imaging flow cytometry in HaCaT; format: cell-based; conditions: 10^–7 M, 12 h
T3 construct: endogenous in cells; host or cells: HaCaT keratinocytes
T3 sequence (P11473 1-427): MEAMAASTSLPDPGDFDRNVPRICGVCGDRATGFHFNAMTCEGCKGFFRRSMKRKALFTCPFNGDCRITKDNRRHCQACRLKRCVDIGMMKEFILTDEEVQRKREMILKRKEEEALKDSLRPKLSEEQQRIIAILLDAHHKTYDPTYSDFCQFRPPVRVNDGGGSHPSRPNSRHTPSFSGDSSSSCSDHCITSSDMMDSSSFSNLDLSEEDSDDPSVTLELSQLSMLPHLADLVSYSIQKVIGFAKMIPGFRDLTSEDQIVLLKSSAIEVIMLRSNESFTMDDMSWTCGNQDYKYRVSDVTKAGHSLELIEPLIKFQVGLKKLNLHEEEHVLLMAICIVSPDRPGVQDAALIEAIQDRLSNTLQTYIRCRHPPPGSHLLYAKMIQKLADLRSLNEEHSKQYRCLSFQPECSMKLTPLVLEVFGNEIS

[1] = system: LXR-response element (LXRE)-driven reporter in CHO cells; experiment: LXRE-driven luciferase reporter assay in CHO cells; format: cell-based; conditions: 10^–7 M, CHO and HaCaT cells (Fig. 4C)
Method: The effects of vitamin D3 and L3 hydroxyderivatives were tested on the LXRE transcriptional activity using pGreenFire1-LXRE-in-ApoE Lentivirus (System Biosciences, Palo Alto, CA). This plasmid was transduced in CHO and HaCaT cells following the manufacture’s protocol and the cells used as a stable LXRE expressed tool. Briefly, the virus was transduced into the cells using TransDux MAX Lentivirus Transduction Enhancer (System Biosciences, Palo Alto, CA) and screened to select the transduced cells using puromycin. The transduced cells were treated with the compounds for 24 h in media containing 5% cFBS (charcoal-treated fetal bovine serum) and the luminescence was read by ONE-Glo Luciferase Assay System (Promega, Madison, WI) using Cytation 5 (BioTek, Winooski, VT).

LBD of LXRα = target: T4, LBD of LXRα (Homo sapiens, UniProt Q13133); experiment: LanthaScreen TR-FRET LXRα coactivator assay (LXR binding assay); format: biochemical; conditions: agonist; average values; read-out: LXRα EC50
T4 construct: after addition of LXRα/β-LBD to the derivatives; purchased Thermo Fisher Scientific
T4 sequence (Q13133 209-447 limits assumed): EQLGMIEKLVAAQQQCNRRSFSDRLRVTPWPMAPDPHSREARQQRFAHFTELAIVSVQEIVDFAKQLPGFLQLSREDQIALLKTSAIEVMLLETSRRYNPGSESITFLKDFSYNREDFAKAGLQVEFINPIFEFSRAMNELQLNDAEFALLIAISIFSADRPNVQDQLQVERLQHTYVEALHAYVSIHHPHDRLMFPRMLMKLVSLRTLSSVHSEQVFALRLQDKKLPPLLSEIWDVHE
Method: as §1

SMILES	EC50 (LBD of LXRβ) [nM]	Cyp7a1 expression (genes downstream of LXR)	translocation of LXRα to the nucleus (immunofluorescence, Manders' coefficient) (LXRα)	translocation of VDR from the cytoplasm to the nucleus (VDR)	EC50 (LBD of LXRα) [nM]	ApoE (apolipoprotein E) expression (genes downstream of LXR)	translocation of LXRα/β from the cytoplasm to the nucleus (LXRα/β)	further results
C=C1/C(=C\C=C2/CCC[C@@]3(C)[C@H]2CC[C@@H]3[C@@](C)(O)CCCC(C)C)C[C@@H](O)C[C@@H]1O [1,20(OH)2D3]	270	inhibited	induced translocation	increased translocation	–	enhanced	increased translocation	–
C=C1C(=CC=C2CCCC3(C)C2CCC3C(C)(O)CCC(O)C(C)C)CC(O)CC1O (stereo not shown) [1,20,24(OH)3D3]	–	–	–	–	–	–	–	LXRE luciferase (transcriptional) activity [1]: strongest stimulatory effects
CC(C)CCC[C@](C)(O)[C@H]1CC[C@H]2C3=CC=C4C[C@@H](O)CC[C@]4(C)[C@H]3CC[C@@]21C [20(OH)7DHC, reference compound]	–	inhibited	–	–	–	inhibited	–	Abcg5 expression (genes downstream of LXR): stimulated; Abcg8 expression (genes downstream of LXR): inhibited; Fas (fatty acid synthase) expression (genes downstream of LXR): stimulated
C=C1CC[C@H](O)C/C1=C/C=C1\CCC[C@@]2(C)[C@H]1CC[C@@H]2[C@@](C)(O)CCCC(C)(C)O [20,25(OH)2D3]	2100	–	–	–	350	–	–	–

Further compounds by falling EC50 (LBD of LXRβ), results first:

EC50 (LBD of LXRβ) [nM]	Cyp7a1 expression (genes downstream of LXR)	translocation of LXRα to the nucleus (immunofluorescence, Manders' coefficient) (LXRα)	translocation of VDR from the cytoplasm to the nucleus (VDR)	EC50 (LBD of LXRα) [nM]	SMILES	ApoE (apolipoprotein E) expression (genes downstream of LXR)	translocation of LXRα/β from the cytoplasm to the nucleus (LXRα/β)	further results
2000	–	induced translocation	increased translocation	1500	CC(C)CCC(O)C(C)(O)C1CCC2C3=CC=C4CC(O)CCC4(C)C3CCC21C (stereo not shown) [20,22(OH)2L3]	–	increased translocation	–
21	inhibited	induced translocation	increased translocation	1800	CC(C)CCC[C@](C)(O)[C@H]1CC[C@H]2C3=CC=C4C[C@@H](O)CC[C@@]4(C)[C@@H]3CC[C@@]21C [20(OH)L3]	inhibited	increased translocation	Abca1 expression (genes downstream of LXR): inhibited; Abcg8 expression (genes downstream of LXR): inhibited; Lpl (lipoprotein lipase) expression (genes downstream of LXR): inhibited
3.8	–	–	–	–	C=C1C(=CC=C2CCCC3(C)C2CCC3C(C)(O)CCCC(C)(C)O)CC(O)CC1O (stereo not shown) [1,20,25(OH)3D3]	–	–	LXRE luciferase (transcriptional) activity [1]: strongest stimulatory effects
